These results are taken from patent US12653798B2, “Fixed combination medicine for the control and management of neuropathic pain” (LABORATORIOS SILANES S.A. DE C.V., priority 2020, dated 2026).

Structures are written as SMILES.

For data set [1] the following is noted: in vivo; cited from earlier work.
Data set [2] in a line: Dissolution profile tests. The class given is physicochemical.

The Cmax is the maximum level reached in the sampled fluid or tissue. Regarding `O=C(O)Cc1ccccc1Nc1c(Cl)cccc1Cl` [Diclofenac], in data set [1], the AUC is on record as 4.4 ± 0.08 μ · h/mL, the Bioavailability was 50-60%, the Cmax was 100 to 2200 ng/mL and the t1/2 was 1.0 to 2.0 h. In addition, the tmax in data set [1] was 1.98 h.
On to `CC(C)Cc1ccc(C(C)C(=O)O)cc1` (centres unmarked) [Ibuprofen], for which, in data set [1], the AUC is reported as 70 μ · h/mL, the Bioavailability is on record as 80%, the Cmax is 20000 ng/mL and the tmax is 2 h.
Consider `O=C(c1ccccc1)c1ccc2n1CCC2C(=O)O` (centres unmarked) [Ketorolac], for which, in data set [1], the AUC is on record as 4.81 μ · h/mL, the Bioavailability was 80%, the Cmax is 5420 ng/mL and the t1/2 was 3.0 to 6.0 h. Further, the tmax in data set [1] was 0.33 to 1.0 h.
Consider `Cc1cnc(NC(=O)C2=C(O)c3ccccc3S(=O)(=O)N2C)s1` [Meloxicam], for which, in data set [1], the AUC is on record as 28.8 μ · h/mL, the Cmax is 1620 ± 200 ng/mL and the tmax was 3.0 to 6.0 h.
For the compound `Cc1ncc(CO)c(CO)c1O.Cl` [pyridoxine hydrochloride], the entries for the “% dissolved” value in data set [2] (t 0 min), in data set [2] (t 10 min) and in data set [2] (t 60 min) were 0.00%, 95.38% and 90.54%, respectively.
